The supplement of paper PMC10307832

Columns and labels:
Experiment in all cases: relative viability (nuclei count vs DMSO), 5 days (fraction); higher = more cells survive
[1] = compound: C#Cc1cccc(Nc2ncnc3cc(OCCOC)c(OCCOC)cc23)c1 [Erlotinib]
In short: (§1)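 Lung cancer cell lines in 1536-well plates were exposed by pinning to five library-drug doses (not always all listed) √10 apart, following an overnight hold at 37 °C. MetaXpress counted Hoechst-stained nuclei from 4× images taken after 5 days without medium change. Viability is the median ratio of treated-well to vehicle-well nuclei across plates. Plates required control CV below 25% and at least one doubling.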

[2] = compound: O=C(Nc1c[nH]nc1-c1nc2ccc(CN3CCOCC3)cc2[nH]1)NC1CC1 [AT9283]
In short: as §1

[3] = compound: N=C(N)NC(=N)NCCc1ccccc1 [Phenformin] (anchor plate); conditions: 250 µM
In short: as §1

Cell Line: NCI-H1944
- relative viability ([1]; 0.2 µM): 0.72
- relative viability ([1]; 0.6325 µM): 0.916
- relative viability ([1]; 2 µM): 0.594
- relative viability ([2]; 0.003 µM): 0.903
- relative viability ([2]; 0.03 µM): 0.629
- relative viability ([2]; 0.09487 µM): 0.367
- relative viability ([2]; 0.3 µM): 0.268
- relative viability [3]: 0.206

Cell Line: NCI-H1975
- relative viability ([1]; 0.02 µM): 0.946
- relative viability ([1]; 0.2 µM): 0.961
- relative viability ([1]; 0.6325 µM): 1.11
- relative viability ([1]; 2 µM): 0.786
- relative viability ([2]; 0.003 µM): 0.944
- relative viability ([2]; 0.03 µM): 1.03
- relative viability ([2]; 0.09487 µM): 0.801
- relative viability ([2]; 0.3 µM): 0.545
- relative viability [3]: 0.409

Cell Line: NCI-H1993
- relative viability ([1]; 0.02 µM): 0.965
- relative viability ([1]; 0.2 µM): 0.748
- relative viability ([1]; 0.6325 µM): 0.714
- relative viability ([2]; 0.003 µM): 0.961
- relative viability ([2]; 0.03 µM): 0.907
- relative viability ([2]; 0.09487 µM): 0.59
- relative viability ([2]; 0.3 µM): 0.497
- relative viability [3]: 0.497

Cell Line: NCI-H2009
- relative viability ([1]; 0.02 µM): 1.07
- relative viability ([1]; 0.2 µM): 0.998
- relative viability ([1]; 0.6325 µM): 1.08
- relative viability ([1]; 2 µM): 0.996
- relative viability ([2]; 0.003 µM): 1.03
- relative viability ([2]; 0.03 µM): 0.859
- relative viability ([2]; 0.09487 µM): 0.423
- relative viability ([2]; 0.3 µM): 0.26
- relative viability [3]: 0.485

Cell Line: NCI-H2023
- relative viability ([1]; 0.02 µM): 0.966
- relative viability ([1]; 0.2 µM): 0.89
- relative viability ([1]; 0.6325 µM): 0.946
- relative viability ([1]; 2 µM): 0.758
- relative viability ([2]; 0.003 µM): 1.03
- relative viability ([2]; 0.03 µM): 0.935
- relative viability ([2]; 0.09487 µM): 0.266
- relative viability ([2]; 0.3 µM): 0.138
- relative viability [3]: 0.43

Cell Line: NCI-H2085
- relative viability ([1]; 0.02 µM): 0.932
- relative viability ([1]; 0.2 µM): 0.851
- relative viability ([1]; 0.6325 µM): 0.843
- relative viability ([1]; 2 µM): 0.699
- relative viability ([2]; 0.003 µM): 1
- relative viability ([2]; 0.03 µM): 0.946
- relative viability ([2]; 0.09487 µM): 0.937
- relative viability ([2]; 0.3 µM): 0.447
- relative viability [3]: 0.724

Cell Line: NCI-H2087
- relative viability ([1]; 0.02 µM): 1.03
- relative viability ([1]; 0.2 µM): 1.03
- relative viability ([1]; 0.6325 µM): 1.07
- relative viability ([1]; 2 µM): 0.879
- relative viability ([2]; 0.003 µM): 0.988
- relative viability ([2]; 0.03 µM): 0.63
- relative viability ([2]; 0.09487 µM): 0.269
- relative viability ([2]; 0.3 µM): 0.16
- relative viability [3]: 0.453

Cell Line: NCI-H2126
- relative viability ([1]; 0.02 µM): 0.961
- relative viability ([1]; 0.2 µM): 0.82
- relative viability ([1]; 0.6325 µM): 0.773
- relative viability ([1]; 2 µM): 0.636
- relative viability ([2]; 0.003 µM): 0.963
- relative viability ([2]; 0.03 µM): 0.991
- relative viability ([2]; 0.09487 µM): 0.829
- relative viability ([2]; 0.3 µM): 0.407
- relative viability [3]: 0.535

Cell Line: NCI-H2170
- relative viability ([1]; 0.02 µM): 1.02
- relative viability ([1]; 0.2 µM): 0.996
- relative viability ([1]; 0.6325 µM): 0.872
- relative viability ([1]; 2 µM): 0.656
- relative viability ([2]; 0.003 µM): 0.991
- relative viability ([2]; 0.03 µM): 0.864
- relative viability ([2]; 0.09487 µM): 0.471
- relative viability ([2]; 0.3 µM): 0.197
- relative viability [3]: 0.439

Cell Line: NCI-H2228
- relative viability ([1]; 0.02 µM): 0.959
- relative viability ([1]; 0.2 µM): 1
- relative viability ([1]; 0.6325 µM): 1.07
- relative viability ([1]; 2 µM): 0.871
- relative viability ([2]; 0.003 µM): 1.08
- relative viability ([2]; 0.03 µM): 0.769
- relative viability ([2]; 0.09487 µM): 0.33
- relative viability ([2]; 0.3 µM): 0.187
- relative viability [3]: 0.318

Cell Line: NCI-H2342
- relative viability ([1]; 0.02 µM): 0.903
- relative viability ([1]; 0.2 µM): 0.891
- relative viability ([1]; 0.6325 µM): 0.84
- relative viability ([1]; 2 µM): 0.725
- relative viability ([2]; 0.003 µM): 1.04
- relative viability ([2]; 0.03 µM): 0.877
- relative viability ([2]; 0.09487 µM): 0.78
- relative viability ([2]; 0.3 µM): 0.424
- relative viability [3]: 0.607
